Measurements reported in US12102633B2, “Spirolactone compounds” (Quixgen, Inc., priority 2017, dated 2024).

How the values were obtained:
Human sebocytes = assay: Cellular levels of malonyl-CoA in human sebocytes; format: cell-based; settings: 0.5 h, 30 min incubation, read-out: Malonyl-CoA in Sebo IC50
Description: (§1) Shimadzu LC system was used for sample analysis consisting of system controller (Shimadzu CBM-20A), autosampler (Shimadzu SIL-20A), pump A and B (Shimadzu LC-20AD), column oven (Shimadzu CTO-20A), and analytical column (Phenomenex Gemini 5u C18 11A, 100×2 mm). LC was running at 200 μL/min in the binary gradient mode with mobile phase A (5 mM Ammonium Acetate and 5 mM DMBA in water (1,3-Dimethylbutylamine)) and B (methanol). The samples were analyzed on an AB Sciex QTrap4000 LC-MS/MS triple quadrupole mass spectrometer (Applied Biosystems). Malonyl-CoA and malonyl-13C-CoA were monitored in positive ion mode following MRM transitions at 854.2/347.1 and 855.1/246.1, respectively. The product and internal standard were coeluted to the mass spectrometer in 3 s with 50% H2O, 25% MeCN, 25% acetone, and 5 mM ammonium acetate. Ion chromatograms were integrated using the Analyst 1.5.2 software. Peak area ratios were compared against a standard curve and final cellular concentration of malonyl-CoA or production rate of malonyl-13C-CoA was calculated as pmoles/mg protein per minute.
Human sebocytes (Celprogen) were grown in growth media (DMEM with 4.5 g/L glucose, 0.584 g/L L-glutamine (Sigma), 100 units/mL of penicillin and 100 μg/mL of streptomycin (Gibco), 10% fetal bovine serum (Gibco)) at 37° C. in a humidified water jacketed incubator (Forma Scientific) supplemented with 5% CO2 till 100% confluency. Cells grown in 152 cm^2 cell culture dish (Corning) were trypsinized with 0.25% trypsin-EDTA (Gibco), centrifuged at 800 rpm for 10 min (Eppendorf) and resuspended in 4 mL growth media. To 1 μL serial diluted compounds in DMSO, 99 μL cells (around 0.5 million cells suspended in growth media) were added and mixed well followed by incubation in cell culture incubator for 30 min. Cells were then centrifuged at 800 rpm for 10 min and 70 μL 10% trichloroacetic acid was added to each well to lyse the cells and precipitate proteins. Cellular levels of malonyl-CoA were quantitated by LC-MS/MS.

[1] = tested on: T1, Mouse ACC (ACC protein purified from liver); assay: Mouse ACC enzymatic activity assay; format: biochemical; settings: read-out: EA-CoA mACC IC50
T1 construct: ACC protein was purified by taking advantage of the biotinylation in the carboxylase domain
Description: ACC protein was purified by taking advantage of the biotinylation in the carboxylase domain. Male C57BL/6J mice (Jackson Laboratory) at 8-12 weeks of age were euthanized by using CO2 inhalation method and liver was immediately frozen on dry ice. To 100 mg liver was added 1 mL ice-cold tissue lysis buffer (20 mM Tris-HCl pH 7.5, 150 mM NaCl, 1 mM Na2EDTA, 1 mM EGTA, 1% Triton, 2.5 mM sodium pyrophosphate, 1 mM 3-glycerophosphate, 1 mM Na3VO4, 1 μg/mL leupeptin, 1 tablet of protease inhibitor cocktail (Roche) per 10 mL lysis buffer) followed by homogenization on ice with Power Gen 125 homogenizer (Fisher Scientific). After 30 min incubation on ice, tissue lysate was passed through a 10 mL syringe with 18½ G needle for 10 times to shear DNA. The lysate was then subject to 17.5%-35% saturated ammonium sulfate precipitation by adding 880 mg ammonium sulfate powder (Sigma) to 10 mL liver lysate in 10 min with stirring on ice. Sample was centrifuged at 14,000 rpm (Eppendorf) at 4° C. for 10 min and supernatant was saved for further precipitation by adding 880 mg ammonium sulfate powder to 10 ml supernatant in 10 min with stirring on ice. Sample was centrifuged at 14,000 rpm at 4° C. for 10 min. Supernatant was discarded and pellet was dissolved in 10 mL sample buffer (100 mM Tris-HCl, pH 7.5, 1 mM EDTA, 0.1 mM DTT, 0.5 M NaCl, and 5% glycerol). The sample was then added with 1 mL of Strep Mag beads slurry (Genscript) and rotated at 4° C. for 1 hour. Supernatant was discarded and beads were washed with sample buffer for 3 times. Protein was then eluted by adding 10 mL of 2 mM biotin (Promega) prepared in sample buffer. The eluate was then dialyzed at 4° C. for 1 hour by using Slide-A-Lyzer™ Dialysis Cassettes 10K MWCO (Thermo Fisher Scientific) against 3 changes of 200 mL dialysis buffer (50 mM HEPES, pH 7.5, 0.1 mM DTT, 1.0 mM EDTA, and 10% glycerol). Total protein concentration was then quantitated by using BCA protein assay kit (Pierce).
For ACC enzymatic activity assay, 1 μL serial diluted compounds prepared in DMSO in duplicate were mixed with 8 μL dialyzed sample at 37° C. for 10 min. Ninety one L of reaction buffer (50 mM HEPES pH 7.5, 10 mM MgCl2, 2.0 mM DTT, 0.5 mM acetyl-CoA, 4.0 mM ATP, 15 mM ^13C-NaHCO3, 0.75 mg/mL BSA, 0.5 mM sodium citrate) was added to the tube and mixed thoroughly. After incubation at 37° C. for 1 hour, 300 μl ice-cold quenching buffer (acetonitrile:methanol=1:1, 20 μM carbutamide as internal standard) was added to each tube and mixed well to terminate the reaction. Samples were centrifuged at 14,000 rpm for 10 min (Eppendorf) and supernatant was loaded onto LC-MS/MS for quantitation of malonyl-^13C-CoA (Gao et al., Journal of chromatography B, Analytical technologies in the biomedical and life sciences 853, 303-313 (2007)).
as §1

human ACC1 = molecular target: T2, human ACC1 (Homo sapiens, UniProt Q13085); assay: Human ACC enzymatic activity assay (ACC1); format: biochemical; settings: purified human ACC1; read-out: EA-CoA hACC 1 IC50
T2 construct: purchased BPS Bioscience
Description: (§2) Human ACC enzymatic activity assays were performed by using purified human ACC1 and ACC2 proteins (BPS Bioscience). ACC1 and ACC2 proteins were diluted in 24.5 μL reaction buffer (50 mM HEPES pH 7.5, 10 mM MgCl2, 2.0 mM DTT, 4.0 mM ATP, 15 mM ^13C-NaHCO3, 0.75 mg/mL BSA, 0.5 mM sodium citrate), and final concentrations of ACC1 and ACC2 were 0.4 μg/mL and 0.48 μg/mL. For each reaction, 0.5 μL of serial diluted compounds were prepared in DMSO in duplicate or triplicate and mixed with the above 24.5 μL reaction mixtures with ACC proteins at 37° C. for 10 min. Meanwhile, 25 μL of reaction buffer plus acetyl-CoA (final concentration: 5 μM) was prepared freshly and added to the above 25 μL mixture to initiate the reaction. After incubation at 37° C. for 1-2 hours, 100 μl ice-cold 10% TCA with malonyl-^13C3-CoA (final concentration: 40 nM, Sigma-Aldrich) was added to terminate the reaction. For LC-MS/MS analysis, 300 μL quenching buffer (acetonitrile:methanol=1:1, 20 μM carbutamide as internal standard) was added to each tube and mixed well. Samples were then centrifuged at 14,000 rpm for 10 min (Eppendorf) and supernatants were loaded onto LC-MS/MS for quantitation of […] (Gao et al., Journal of chromatography B, Analytical technologies in the biomedical and life sciences 853, 303-313 (2007)).
as §1

human ACC2 = molecular target: T3, human ACC2 (Homo sapiens, UniProt O00763); assay: Human ACC enzymatic activity assay (ACC2); format: biochemical; settings: purified human ACC2; read-out: EA-CoA hACC 2 IC50
T3 construct: purchased BPS Bioscience
T3 sequence (O00763 whole entry): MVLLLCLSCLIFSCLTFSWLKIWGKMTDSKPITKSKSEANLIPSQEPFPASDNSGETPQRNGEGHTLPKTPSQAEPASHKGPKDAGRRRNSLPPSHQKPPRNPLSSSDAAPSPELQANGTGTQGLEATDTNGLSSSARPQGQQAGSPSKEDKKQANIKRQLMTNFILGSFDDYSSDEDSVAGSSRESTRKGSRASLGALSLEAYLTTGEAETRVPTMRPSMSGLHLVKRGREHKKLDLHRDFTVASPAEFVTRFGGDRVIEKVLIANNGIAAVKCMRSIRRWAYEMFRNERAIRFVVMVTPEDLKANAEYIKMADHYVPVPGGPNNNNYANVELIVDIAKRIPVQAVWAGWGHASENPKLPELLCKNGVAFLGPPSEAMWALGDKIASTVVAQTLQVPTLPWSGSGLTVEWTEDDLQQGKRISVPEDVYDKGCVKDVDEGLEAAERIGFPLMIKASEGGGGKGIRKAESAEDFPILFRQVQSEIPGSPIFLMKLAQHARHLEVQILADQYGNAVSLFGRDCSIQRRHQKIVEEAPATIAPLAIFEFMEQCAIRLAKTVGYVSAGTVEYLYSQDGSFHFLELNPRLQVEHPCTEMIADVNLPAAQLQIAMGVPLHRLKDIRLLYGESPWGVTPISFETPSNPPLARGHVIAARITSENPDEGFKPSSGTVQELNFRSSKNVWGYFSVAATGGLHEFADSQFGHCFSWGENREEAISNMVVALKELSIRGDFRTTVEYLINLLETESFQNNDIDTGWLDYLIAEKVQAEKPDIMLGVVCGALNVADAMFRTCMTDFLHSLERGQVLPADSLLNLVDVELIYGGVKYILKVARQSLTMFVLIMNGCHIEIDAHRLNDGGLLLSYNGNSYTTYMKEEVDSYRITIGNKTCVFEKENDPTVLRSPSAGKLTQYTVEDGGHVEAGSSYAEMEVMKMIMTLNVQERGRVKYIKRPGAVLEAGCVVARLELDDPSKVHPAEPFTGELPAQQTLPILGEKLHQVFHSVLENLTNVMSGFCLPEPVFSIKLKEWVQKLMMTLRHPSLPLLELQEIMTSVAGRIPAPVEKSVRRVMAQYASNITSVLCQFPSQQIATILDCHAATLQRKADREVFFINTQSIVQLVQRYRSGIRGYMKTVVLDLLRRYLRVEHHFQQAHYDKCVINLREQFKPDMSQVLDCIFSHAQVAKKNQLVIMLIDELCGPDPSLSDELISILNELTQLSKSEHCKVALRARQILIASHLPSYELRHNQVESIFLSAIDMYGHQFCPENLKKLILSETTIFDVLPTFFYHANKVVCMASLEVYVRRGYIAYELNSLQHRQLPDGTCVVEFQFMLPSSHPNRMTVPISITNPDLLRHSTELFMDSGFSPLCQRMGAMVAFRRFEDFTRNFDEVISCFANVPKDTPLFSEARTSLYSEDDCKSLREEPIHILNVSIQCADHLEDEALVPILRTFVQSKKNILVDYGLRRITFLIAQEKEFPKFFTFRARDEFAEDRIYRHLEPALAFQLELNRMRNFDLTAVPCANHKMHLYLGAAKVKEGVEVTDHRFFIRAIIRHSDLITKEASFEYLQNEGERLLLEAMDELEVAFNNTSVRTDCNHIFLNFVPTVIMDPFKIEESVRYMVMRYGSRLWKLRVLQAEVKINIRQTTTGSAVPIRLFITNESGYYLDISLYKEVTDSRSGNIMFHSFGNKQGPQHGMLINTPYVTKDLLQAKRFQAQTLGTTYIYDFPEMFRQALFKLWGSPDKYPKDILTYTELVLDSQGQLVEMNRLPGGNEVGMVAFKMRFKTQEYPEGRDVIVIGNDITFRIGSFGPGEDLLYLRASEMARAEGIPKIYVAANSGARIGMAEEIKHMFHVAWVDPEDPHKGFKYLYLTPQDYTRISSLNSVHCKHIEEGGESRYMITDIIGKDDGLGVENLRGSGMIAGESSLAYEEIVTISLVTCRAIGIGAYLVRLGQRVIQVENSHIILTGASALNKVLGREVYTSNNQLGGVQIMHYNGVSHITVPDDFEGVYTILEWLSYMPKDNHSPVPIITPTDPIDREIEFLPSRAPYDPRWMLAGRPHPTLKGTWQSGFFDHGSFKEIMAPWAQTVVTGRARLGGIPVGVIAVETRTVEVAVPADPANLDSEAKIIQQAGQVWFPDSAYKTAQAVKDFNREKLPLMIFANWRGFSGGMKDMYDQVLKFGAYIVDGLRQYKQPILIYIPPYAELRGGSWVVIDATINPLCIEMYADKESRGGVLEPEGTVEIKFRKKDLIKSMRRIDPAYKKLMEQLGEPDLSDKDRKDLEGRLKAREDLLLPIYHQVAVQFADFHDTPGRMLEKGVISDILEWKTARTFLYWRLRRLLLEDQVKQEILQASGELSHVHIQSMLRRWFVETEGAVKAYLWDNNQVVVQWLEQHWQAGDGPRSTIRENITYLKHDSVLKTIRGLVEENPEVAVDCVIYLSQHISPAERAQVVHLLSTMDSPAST
Description: as §2, §1

Row | IC50 (Human sebocytes) | Structure (SMILES) | also measured
1 | 676 nM | CC(C)c1ccc2c(c1)C(=O)OC1(CCN(C(=O)c3ccc4cn[nH]c4c3)CC1)C2 [Example 10, 1′-(1H-indazole-6-carbonyl)-7-isopropylspiro-[isochroman-3,4′-piperidin]-1-one] | –
2 | – | COc1cc(C(=O)N2CCC3(CC2)Cc2ccc(Nc4ccnn4C)cc2C(=O)O3)cc2c(OC)cccc12 [Example 5, 1′-(4,8-dimethoxy-2-naphthoyl)-7-((1-methyl-1H-pyrazol-5-yl)amino)spiro[isochroman-3,4′-piperidin]-1-one] | IC50 [1]: 0.37 nM
3 | – | COC(=O)c1cncc(-c2ccc3c(c2)C(=O)OC2(CCN(C(=O)c4cc(OC)c5c(C)cn(C6CC6)c5c4)CC2)C3)c1 [Example 21, methyl 5-(1′-(1-cyclopropyl-4-methoxy-3-methyl-1H-indole-6-carbonyl)-1-oxospiro[isochroman-3,4′-piperidin]-7-yl)nicotinate] | IC50 (human ACC1): 296 nM; IC50 (human ACC2): 221 nM
4 | – | COc1cc(C(=O)N2CCC3(CC2)Cc2ccc(-c4cncc(C(=O)O)c4)cc2C(=O)O3)cc2c1c(C)cn2C1CC1 [Example 22, 5-(1′-(1-cyclopropyl-4-methoxy-3-methyl-1H-indole-6-carbonyl)-1-oxospiro[isochroman-3,4′-piperidin]-7-yl)nicotinic acid] | IC50 (human ACC1): 23.9 nM; IC50 (human ACC2): 11.1 nM
5 | 714 nM | CC(C)c1ccc2c(c1)C(=O)OC1(CCN(C(=O)c3cc4ncccc4[nH]3)CC1)C2 [Example 9, 7-isopropyl-1′-(1H-pyrrolo[3,2-b]pyridine-2-carbonyl)-spiro[isochroman-3,4′-piperidin]-1-one] | –
6 | 6150 nM | Cc1nc2ccc(C(=O)N3CCC4(CC3)Cc3ccc(C(C)C)cc3C(=O)O4)cc2[nH]1 [Example 7, 7-isopropyl-1′-(2-methyl-1H-benzo[d]imidazole-6-carbonyl)spiro[isochroman-3,4′-piperidin]-1-one] | –
7 | 442 nM | CC(C)c1ccc2c(c1)C(=O)OC1(CCN(C(=O)c3ccc4[nH]ncc4c3)CC1)C2 [Example 8, 1′-(1H-indazole-5-carbonyl)-7-isopropylspiro[isochroman-3,4′-piperidin]-1-one] | –
8 | 3490 nM | CCc1nc2ccc(C(=O)N3CCC4(CC3)Cc3ccc(C(C)C)cc3C(=O)O4)cc2[nH]1 [Example 12, 1′-(2-ethyl-1H-benzo[d]imidazole-6-carbonyl)-7-isopropylspiro[isochroman-3,4′-piperidin]-1-one] | –
9 | 142 nM | COc1ccc2ncc(C(=O)N3CCC4(CC3)Cc3ccc(C(C)C)cc3C(=O)O4)cc2c1 [Example 11, 7-isopropyl-1′-(6-methoxyquinoline-3-carbonyl)spiro [isochroman-3,4′-piperidin]-1-one] | –
10 | – | COC(=O)c1cncc(-c2ccc3c(c2)C(=O)OC2(CCN(C(=O)c4cc(OC)c5cccc(C6CC6)c5n4)CC2)C3)c1 [Example 19, methyl 5-(1′-(8-cyclopropyl-4-methoxyquinoline-2-carbonyl)-1-oxospiro[isochroman-3,4′-piperidin]-7-yl)nicotinate] | IC50 (human ACC1): 1120 nM; IC50 (human ACC2): 740 nM
11 | 2440 nM | CC(C)c1ccc2c(c1)C(=O)OC1(CCN(C(=O)c3ccc4[nH]c(=O)n(C)c4c3)CC1)C2 [Example 13, 7-isopropyl-1′-(3-methyl-2-oxo-2,3-dihydro-1H-benzo [d]imidazole-5-carbonyl)spiro[isochroman-3,4′-piperidin]-1-one] | –
